Laboratory results published in patent publication US8415305B2, “Use of cyclic depsipeptides to inhibit kallikrein 7” (Novartis AG, priority 2007, dated 2013).
pIC50: −log10 of the molar value.

Molecular target: human kallikrein 7 (hKallikrein7) (Homo sapiens, UniProt P49862)
Experiment: Kallikrein 7 fluorescence-quenched substrate enzymatic assay (IC50)
Format: biochemical
Method: An “inhibitor” is a cyclic depsipeptide that inhibits an enzymatic reaction with a measure IC50 of less than […], for instance 50 μM, 30 μM, 20 μM or 10 μM. Particularly preferred are cyclic depsipeptides with an IC50 of less than 30 μM for human kallikrein 7, for instance cyclic depsipeptides with an IC50 of less than 10 μM, 1 μM, 100 nM, 50 nM, 40 nM, 30 nM, 20 nM, 10 nM, or less. IC50 for human kallikrein can be measured using the fluorescence-quenched substrate Ac-Glu-Asp(EDANS)-Lys-Pro-lle-Leu-Phe^Arg-Leu-Gly-Lys(DABCYL)-Glu-NH2 (SEQ ID NO 1) (where ^ indicates the scissile bond, identified by MS analysis) which can be purchased from Biosyntan (Berlin, Germany). Enzymatic reactions are conducted in 50 mM sodium citrate buffer at pH 5.6 containing 150 mM NaCl and 0.05% (w/v) CHAPS. For the determination of IC50 values the assay is performed at room temperature in 384-well plates. All final assay volumes are 30 μl. Test compounds are dissolved in 90% (v/v) DMSO/water and diluted in water (containing 0.05% (w/v) CHAPS) to 3-times the desired assay concentration. The 11 final compound concentrations are: 0.3 nM, 1 nM, 3 nM, 10 nM, 30 nM, 100 nM, 300 nM, 1 μM, 3 μM, 10 μM and 30 μM. For each assay, 10 μl water/CHAPS (±test compound) are added per well, followed by 10 μl protease solution (diluted with 1.5× assay buffer). The protease concentration in final assay solution is 0.2 nM (according to the enzyme concentrations determined by the Bradford method). After 1 hour of incubation at room temperature, the reaction is started by addition of 10 μl substrate solution (substrate dissolved in 1.5× assay buffer, final concentration is 2 μM). The effect of the compound on the enzymatic activity is obtained from the linear progress curves and determined from two readings, the first one taken directly after the addition of substrate (t=0 min) and the second one after 1 hour (t=60 min). The IC50 value is calculated from the plot of percentage of inhibition vs. inhibitor concentration using non-linear regression analysis software (XLfit, Vers. 4.0; ID Business Solution Ltd., Guildford, Surrey, UK).
The fluorescence-quenched substrate Ac-Glu-Asp(EDANS)-Lys-Pro-lle-Leu-Phe^Arg-Leu-Gly-Lys(DABCYL)-Glu-NH2 (SEQ ID NO1) (where ^ indicates the scissile bond, identified by MS analysis) is purchased from Biosyntan (Berlin, Germany) and kept as a 5 mM stock solution in DMSO at −20° C. All other chemicals are of analytical grade. […]
For fluorescence intensity (FI) measurements an Ultra Evolution reader (TECAN, Maennedorf, Switzerland) is used. The instrument is equipped with a combination of a 350 nm (20 nm bandwidth) and a 500 nm (25 nm bandwidth) bandpath filter for fluorescence excitation and emission acquisition, respectively. […]

Chain of human kallikrein 7 (hKallikrein7) (P49862 30-253): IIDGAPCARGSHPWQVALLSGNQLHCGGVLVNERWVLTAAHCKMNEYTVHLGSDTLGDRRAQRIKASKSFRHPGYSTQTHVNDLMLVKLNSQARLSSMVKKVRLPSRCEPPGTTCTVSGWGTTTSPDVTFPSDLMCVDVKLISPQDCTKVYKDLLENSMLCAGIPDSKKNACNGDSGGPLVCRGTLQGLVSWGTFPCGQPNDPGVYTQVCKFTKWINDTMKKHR

Structure (SMILES) | pIC50
CCC(C)[C@@H]1NC(=O)[C@H](Cc2ccc(O)cc2)N(C)C(=O)[C@H](C(C)CC)N2C(=O)C(CC[C@@H]2O)NC(=O)[C@H](CC(C)C)NC(=O)[C@H](NC(=O)[C@H](CCC(N)=O)NC(=O)C(C)C)[C@@H](C)OC1=O (stereo partly shown) [formula (II)] | 9.00
CCC(C)C(=O)N[C@@H](CCC(N)=O)C(=O)NC1C(=O)N[C@@H](CC(C)C)C(=O)NC2CC[C@H](O)N(C2=O)[C@@H](C(C)CC)C(=O)N(C)[C@@H](Cc2ccc(O)cc2)C(=O)N[C@@H](C(C)CC)C(=O)O[C@@H]1C (stereo partly shown) [formula (III)] | 9.40
CCC(C)C(=O)N[C@@H](CCC(N)=O)C(=O)N[C@H]1C(=O)N[C@@H](CC(C)C)C(=O)N[C@H]2CC=CN(C2=O)[C@@H](C(C)CC)C(=O)N(C)[C@@H](Cc2ccc(O)cc2)C(=O)N[C@@H](C(C)CC)C(=O)O[C@@H]1C (stereo partly shown) [formula (IV)] | 8.30
CCC(C)[C@@H]1NC(=O)[C@H](Cc2ccc(O)cc2)N(C)C(=O)[C@H](C(C)CC)N2C=CC[C@H](NC(=O)[C@H](CC(C)C)NC(=O)[C@H](NC(=O)[C@H](CCC(N)=O)NC(=O)C(C)C)[C@@H](C)OC1=O)C2=O (stereo partly shown) [formula (V)] | 8.22
